Data set [1] addresses T1, BACE2 (Homo sapiens, UniProt Q9Y5Z0).
T1 sequence (Q9Y5Z0 63-518): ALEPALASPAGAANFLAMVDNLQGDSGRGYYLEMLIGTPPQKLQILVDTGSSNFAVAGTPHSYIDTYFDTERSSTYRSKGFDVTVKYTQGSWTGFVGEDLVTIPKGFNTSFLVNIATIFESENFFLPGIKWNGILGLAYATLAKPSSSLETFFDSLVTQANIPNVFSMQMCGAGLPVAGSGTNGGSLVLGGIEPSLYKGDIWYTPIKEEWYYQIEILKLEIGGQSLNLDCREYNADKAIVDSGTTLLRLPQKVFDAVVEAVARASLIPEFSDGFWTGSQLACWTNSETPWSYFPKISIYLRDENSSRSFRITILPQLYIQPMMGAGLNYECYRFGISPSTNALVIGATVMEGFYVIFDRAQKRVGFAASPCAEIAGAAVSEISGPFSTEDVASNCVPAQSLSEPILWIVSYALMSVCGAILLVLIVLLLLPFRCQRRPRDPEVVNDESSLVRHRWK
In words: BACE2 cell-free assay (BACE2 enzyme assay). It is filed as biochemical. As to conditions: for BACE2/BACE1 IC50 ratio: BACE2 IC50 divided by BACE1 IC50, cell free assays. The source says: BACE2 Cell-Free Assay (BACE2 Enzyme Assay)
Selectivity versus related targets is important in terms of safety of a drug candidate. BACE2 is a close homolog of BACE1. BACE2 was recently reported to play a crucial role in pigmentation of the skin by processing pigment cell-specific melanocyte protein (PMEL). (Proc Natl Acad Sci USA. 2013 Jun. 25; 110(26):10658-63. doi: 10.1073/pnas.1220748110. Epub 2013 Jun. 10). It is believed that PMEL contributes in melanogenesis. Therefore, selectivity versus BACE2 is advantageous when it comes to pigmentation of the skin. The selectivity ratio of BACE2/BACE1 IC50 was calculated by dividing the BACE2 IC50 value by the BACE1 IC50 value determined each in the cell free assay. […] This implies a 3-fold improvement of example 1 compared to comparators 4 and 5.

The target in data set [2] is T2, hERG channel (Homo sapiens, UniProt Q12809). In words: hERG patch liner assay. It is filed as cell-based. The source says: The methods to determine the hERG IC20 patch liner values were described in Toward a New Gold Standard for Early Safety: Automated Temperature-Controlled hERG Test on the PatchLiner. Polonchuk L., Front Pharmacol. 2012 Jan. 26; 3:3. (doi: 10.3389/fphar.2012.00003. eCollection 2012.) PMID:22303293
T2 sequence (Q12809 whole entry): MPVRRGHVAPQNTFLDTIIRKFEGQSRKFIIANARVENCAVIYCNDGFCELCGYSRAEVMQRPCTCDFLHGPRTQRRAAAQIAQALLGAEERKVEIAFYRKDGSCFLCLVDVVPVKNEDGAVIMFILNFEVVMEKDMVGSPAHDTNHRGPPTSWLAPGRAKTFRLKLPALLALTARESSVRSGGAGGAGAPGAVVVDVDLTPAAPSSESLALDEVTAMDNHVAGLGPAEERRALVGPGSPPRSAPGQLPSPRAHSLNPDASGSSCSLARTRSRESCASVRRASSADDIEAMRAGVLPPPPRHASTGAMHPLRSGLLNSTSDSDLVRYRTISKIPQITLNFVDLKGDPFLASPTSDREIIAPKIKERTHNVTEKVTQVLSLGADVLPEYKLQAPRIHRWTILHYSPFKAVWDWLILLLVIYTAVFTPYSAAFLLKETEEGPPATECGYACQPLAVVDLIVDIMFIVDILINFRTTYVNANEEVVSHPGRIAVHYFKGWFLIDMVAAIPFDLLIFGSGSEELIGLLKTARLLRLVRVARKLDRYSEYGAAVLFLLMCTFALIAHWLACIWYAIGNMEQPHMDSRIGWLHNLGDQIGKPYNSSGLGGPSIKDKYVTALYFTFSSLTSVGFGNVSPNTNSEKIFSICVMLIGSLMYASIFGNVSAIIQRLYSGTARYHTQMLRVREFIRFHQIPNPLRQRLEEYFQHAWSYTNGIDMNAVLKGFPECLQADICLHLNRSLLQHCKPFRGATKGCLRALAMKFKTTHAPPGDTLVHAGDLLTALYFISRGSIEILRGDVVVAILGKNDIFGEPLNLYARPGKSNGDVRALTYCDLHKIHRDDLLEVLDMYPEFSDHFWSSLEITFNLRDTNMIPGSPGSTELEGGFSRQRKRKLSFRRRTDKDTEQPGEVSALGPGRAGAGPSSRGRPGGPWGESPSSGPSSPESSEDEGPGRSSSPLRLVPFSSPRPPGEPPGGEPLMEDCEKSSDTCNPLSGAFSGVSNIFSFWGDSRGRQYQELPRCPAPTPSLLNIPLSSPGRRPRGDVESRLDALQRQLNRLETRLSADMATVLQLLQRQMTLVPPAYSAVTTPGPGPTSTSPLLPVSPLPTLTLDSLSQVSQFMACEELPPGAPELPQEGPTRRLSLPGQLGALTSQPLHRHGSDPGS

Data set [3] concerns the target T2, hERG channel. In words: hERG IC20 assay. As to conditions: human, hERG IC20 assay. It is filed as cell-based. The source says:
The methods to determine the hERG IC20 values was described in Industrializing electrophysiology: HT automated patch clamp on SyncroPatch® 96 using instant frozen cells. Polonchuk L., Methods Mol Biol. 2014; 1183:81-92. (doi: 10.1007/978-1-4939-1096-0_5.) PMID:25023303
QT prolongation is a cardiovascular risk caused by drug candidates which inhibit the hERG channel (human ether a go-go). A sufficient safety margin between the hERG IC20 value and the free plasma concentration necessary to achieve the envisaged thereapeutic effects is desired (ICH. The nonclinical evaluation of the potential for delayed ventricular repolarization (QT interval prolongation) by human pharmaceuticals (S7B), issued as CPMP/ICH/423/02, adopted by CHMP in May 2005 (http://www.ich.org/cache/compo/276-254-1.html; Redfern W S, Carlsson L, Davis A S, Lynch W G, MacKenzie I, Palethorpe S, Siegl P K, Strang I, Sullivan A T, Wallis R, Camm A J, Hammond T G. Relationships between preclinical cardiac electrophysiology, clinical QT interval prolongation and torsade de pointes for a broad range of drugs: evidence for a provisional safety margin in drug development. Cardiovasc Res. 2003 Apr. 1; 58(1):32-45.)). Reducing the activity against efflux transporters expressed at the blood-brain-barrier such as P-glycoprotein P-gp, might result in reduction of the free plasma concentration by optimizing brain penetration.

A short description of data set [4]: Rat single dose PK study. It is filed as in vivo. As to conditions: 1 mg/kg; for concentration at 4 h: oral. The procedure:
Rat Single Dose PK Study (Inhibition of CSF Aβ40 in Wistar Rats)
The rat single dose PK study was described in H. Hilpert et al., J. Med. Chem. 2013, 56, 3980-3995 (dx.doi.org/10.1021/jm400225m) with slight modifications.
Blood is transferred into a labeled EDTA-K2 Eppendorf tube and the sample is mixed by inverting the tubes several times. Blood is stored at −20° C.

The target in data set [5] is BACE1 (Homo sapiens, UniProt P56817). Briefly: Cellular Aβ-lowering assay (Abeta 40 AlphaLISA, HEK293 APP cells). Particulars: HEK293 APP cells, Aβ40 in supernatant; read-out: BACE1 cell act. Aβ40 IC50. Details: endogenous in cells; host or cells: HEK293 APP cells. It is filed as cell-based. The procedure: Cellular Aβ-Lowering Assay:
The Abeta 40 AlphaLISA Assay can be used. The HEK293 APP cells were seeded in 96 well Microtiter plates in cell culture medium (Iscove's, plus 10% (v/v) fetal bovine serum, penicillin/streptomycin) to about 80% confluency and the compounds were added at a 3× concentration in ⅓ volume of culture medium (final DMSO concentration was kept at 1% v/v). After 18-20 hrs incubation at 37° C. and 5% CO2 in a humidified incubator, the culture supernatants were harvested for the determination of AP 40 concentrations using Perkin-Elmer Human Amyloid beta 1-40 (high specificity) Kit (Cat#AL275C).
In a Perkin-Elmer White Optiplate-384 (Cat#6007290), 2 ul culture supernatants were combined with 2 μl of a 10× AlphaLISA Anti-hAP Acceptor beads+Biotinylated Antibody Anti-Aβ 1-40 Mix (50 μg/mL/5 nM). After 1 hour room temperature incubation, 16 μl of a 1.25× preparation of Streptavidin (SA) Donor beads (25 μg/mL) were added and incubated for 30 minutes in the Dark. Light Emission at 615 nm was then recorded using EnVision-Alpha Reader. Levels of AP 40 in the culture supernatants were calculated as percentage of maximum signal (cells treated with 1% DMSO without inhibitor). The IC50 value were calculated using the Excel XLfit software.
Cellular Aβ-Lowering Assay (Cell-Based Assay)
The determination of BACE1 activity can be either measured by using an enzymatic cell-free fluorescence assay (BACE1 cell free, table 2) or by a whole cell assay using HEK293 APP cells (Cellular Aβ-lowering, table 2). Both assays are suitable to determine BACE1 inhibition.

Structures are written as SMILES. Several values for one entry are separate records, joined by “and”; a condition that tells them apart may be missing. Equal entries are not always repeated. Where two headings read alike, the source gives them in different places.

Sequence of BACE1 (P56817 46-501): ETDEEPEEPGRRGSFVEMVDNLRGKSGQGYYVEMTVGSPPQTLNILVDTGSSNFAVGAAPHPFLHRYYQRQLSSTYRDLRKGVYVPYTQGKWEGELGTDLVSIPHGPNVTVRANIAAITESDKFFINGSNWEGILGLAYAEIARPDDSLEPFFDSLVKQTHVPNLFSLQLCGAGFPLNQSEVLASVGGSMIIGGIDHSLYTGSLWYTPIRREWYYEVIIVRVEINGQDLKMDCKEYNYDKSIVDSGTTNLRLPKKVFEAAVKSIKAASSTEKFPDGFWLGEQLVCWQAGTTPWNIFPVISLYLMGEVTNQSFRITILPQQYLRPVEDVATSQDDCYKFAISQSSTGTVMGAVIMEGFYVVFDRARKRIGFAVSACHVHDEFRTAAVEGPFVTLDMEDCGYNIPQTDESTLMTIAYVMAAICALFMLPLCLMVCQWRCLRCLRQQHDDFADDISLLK

Turning to `Cc1cc(C#N)cnc1C(=O)Nc1ccc(F)c([C@@]2(C)N=C(N)O[C@H](C(F)(F)F)[C@@H]2F)n1` [Example 1, N-(6-((4R,5R,6S)-2-amino-5-fluoro-4-methyl-6-(trifluoromethyl)-5,6-dihydro-4H-1,3-oxazin-4-yl)-5-fluoropyridin-2-yl)-5-cyano-3-methylpicolinamide], in data set [1], the “improvement of BACE2/BACE1 selectivity compared to comparators 4 and 5” value came to 3 fold. The “BACE2/BACE1 IC50 ratio” value is listed as 2.0 in data set [1] and 2 in data set [1] (listed as example 1). In addition, the “improvement of the hERG safety margin versus comparator 6” value in data set [2] (at approximately 80% reduction of Aβ40 in rat CSF) was determined as 17 fold. Also, the concentration for an effect of 20% (IC20) in data set [2] (human, hERG patchliner assay) was 2340 nM; in data set [3] (instant frozen cells (hERG channel; cell line not named)), > 1000 nM; in data set [3], > 1000 nM. Further, in data set [4] (4 h, free unbound), the “Plasma concentration at 4 h, free” value came out at 12.5 nM. The “Plasma concentration at 4 h” value in data set [4] (4 h, total) was determined as 90.2 nM. Moreover, the concentration at 4 h in data set [4] (Wistar, plasma, 4 h, free unbound, read-out: Plasma concentration at 4 h, free) is 12.5 nM; in data set [4] (Wistar, plasma, 4 h, free, read-out: Plasma concentration at 4 h, free) it was 41 ng/mL; in data set [4] (Wistar, plasma, 4 h, total, read-out: Plasma concentration at 4 h) it was 90 nM and 41 ng/mL. Further, in data set [4] (Wistar, plasma, po, read-out: Oral Bioavailability F), the bioavailability worked out at 62%. For the same molecule, the 50% inhibitory concentration (IC50) in data set [5] came out at 15 nM.

(Values after US20190055231A1, “BACE1 INHIBITORS” (Hoffmann-La Roche Inc., priority 2016, published 2019).)
